In ChEMBL document CHEMBL1201862, “PubChem BioAssay data set” (2004):
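Tested at 5 concentrations; 48 h exposure; 96-well plates; endpoints linearly interpolated, else capped at highest concentration. GI50 is the concentration that inhibits growth by half.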 The source made the active and inactive calls. No stated cut-off is given here; in the data, active = GI50 up to about 1.1 µM and inactive = higher.

Experiments:
Test in all cases: NCI-60 cell line screen, 48 h
[1] = system: 786-0
[2] = system: A498
[3] = system: A549
[4] = system: ACHN
[5] = system: BT-549
[6] = system: CAKI-1
[7] = system: CCRF-CEM
[8] = system: DU-145
[9] = system: EKVX
[10] = system: HCT-116
[11] = system: HCT-15
[12] = system: HL-60
[13] = system: HOP-62
[14] = system: HOP-92
[15] = system: HT-29
[16] = system: Hs-578T
[17] = system: IGROV-1
[18] = system: K562
[19] = system: KM12
[20] = system: LOX IMVI
[21] = system: M14
[22] = system: MCF7
[23] = system: MDA-MB-231
[24] = system: MDA-MB-435
[25] = system: MDA-N
[26] = system: MOLT-4
[27] = system: Malme-3M
[28] = system: NCI-H23
[29] = system: NCI-H460
[30] = system: NCI-H522
[31] = system: NCI/ADR-RES
[32] = system: OVCAR-3
[33] = system: OVCAR-4
[34] = system: OVCAR-5
[35] = system: OVCAR-8
[36] = system: PC-3
[37] = system: RXF 393
[38] = system: SF-268
[39] = system: SF-295
[40] = system: SK-MEL-28
[41] = system: SK-MEL-2
[42] = system: SK-OV-3
[43] = system: SN12C
[44] = system: SNB-19
[45] = system: SNB-75
[46] = system: SR
[47] = system: SW-620
[48] = system: T47D
[49] = system: TK-10
[50] = system: U-251
[51] = system: UACC-257
[52] = system: UACC-62
[53] = system: UO-31

## COc1ccc(N2C(=O)C3ON(Cc4ccc(CC(N)=O)cc4)C(c4c5ccccc5c(C)c5ccccc45)C3C2=O)cc1 (stereo not drawn)
[1]
  GI50: 30 µM (inactive)
[2]
  GI50: 46.1 µM (inactive)
[3]
  GI50: 29.8 µM (inactive)
[4]
  GI50: 21.5 µM (inactive)
[5]
  GI50: 30.1 µM (inactive)
[6]
  GI50: 20.7 µM (inactive)
[7]
  GI50: 12.4 µM (inactive)
[8]
  GI50: 20.9 µM (inactive)
[9]
  GI50: 20.9 µM (inactive)
[10]
  GI50: 17.9 µM (inactive)
[11]
  GI50: 17.1 µM
[12]
  GI50: 14.9 µM (inactive)
[13]
  GI50: 40.4 µM (inactive)
[14]
  GI50: 19 µM (inactive)
[15]
  GI50: 12.9 µM (inactive)
[16]
  GI50: 54.8 µM (inactive)
[17]
  GI50: 27.3 µM (inactive)
[18]
  GI50: 3.27 µM (inactive)
[19]
  GI50: 12.1 µM (inactive)
[20]
  GI50: 26.4 µM (inactive)
[21]
  GI50: 24.3 µM (inactive)
[22]
  GI50: 17.7 µM (inactive)
[23]
  GI50: 36.5 µM (inactive)
[24]
  GI50: 27.2 µM (inactive)
[25]
  GI50: 22.3 µM (inactive)
[26]
  GI50: 2.2 µM (inactive)
[27]
  GI50: 35.8 µM (inactive)
[28]
  GI50: 32.7 µM (inactive)
[29]
  GI50: 13.6 µM (inactive)
[30]
  GI50: 20 µM (inactive)
[31]
  GI50: 35.8 µM (inactive)
[32]
  GI50: 25.4 µM (inactive)
[33]
  GI50: 13.6 µM (inactive)
[34]
  GI50: 27 µM (inactive)
[35]
  GI50: 27 µM (inactive)
[36]
  GI50: 21.6 µM (inactive)
[37]
  GI50: 14.2 µM (inactive)
[38]
  GI50: 38.7 µM (inactive)
[39]
  GI50: 22 µM (inactive)
[40]
  GI50: > 100 µM (inactive)
[41]
  GI50: 20.1 µM (inactive)
[42]
  GI50: > 100 µM (inactive)
[43]
  GI50: 33.7 µM (inactive)
[44]
  GI50: 27.9 µM (inactive)
[45]
  GI50: 14.4 µM (inactive)
[46]
  GI50: 12.6 µM (inactive)
[47]
  GI50: 25.9 µM (inactive)
[48]
  GI50: 17.6 µM (inactive)
[49]
  GI50: 17.8 µM (inactive)
[50]
  GI50: 22.8 µM (inactive)
[51]
  GI50: 17.6 µM (inactive)
[52]
  GI50: 30.7 µM (inactive)
[53]
  GI50: 16.4 µM (inactive)
